# Test results taken from patent publication US10526402B2, “Anti-TGF-beta antibody for the treatment of fanconi anemia” (Dana-Farber Cancer Institute, Inc., priority 2015, dated 2020).
# Columns and labels:
# U2OS cells = assay: Homologous recombination assay with DR-GFP reporter; type: cell-based; conditions: 10 μM B02, FIG. 8D
# Protocol: (§1) (A) Experimental scheme for inhibition of TGF-β Pathway in mice. WT or Fancd2−/− mice were treated with isotype or 1D11 antibody (10 mg/kg) for 48h, and bone marrow HSCs were sorted for gene expression profile and cell cycle analysis. […] Cell cycle analysis of HSCs from WT or Fancd2−/− mice treated with isotype or 1D11 antibody for 48h is shown. Error bars represent mean±s.e.m. (n=4 mice per group). […] Homologous recombination assay was measured in U2OS cells with DR-GFP reporter after treatment with […] RI-1 and 10 μM B02. The representative of two independent experiments is presented; error bars represent mean±s.e.m. […] GM6914 (FA-A) cells or corrected GM6914+FANCA cells were treated with 1 μM MMC and 10 μM inhibitors for 6h before immunofluorescence analysis. Representative images (E) and quantification (F) of RAD51 foci are shown. […] HSPCs from WT or Fancd2−/− mice were treated with B02 (10 μM) or RI-1 ([…]) in vitro for five days and survival was determined. […] HSPCs from WT or Fancd2−/− mice were exposed to 1D11 (10 μg/mL) and RAD51 inhibitors (10 μM) for 30 min followed by exposure to acetaldehyde for 4 hrs. The cells were then washed and cultured in presence of 1D11 and RAD51 inhibitors for 7-9 days, and hematopoietic colonies were counted.
# GM6914 (FA-A) cells = assay: RAD51 foci formation by immunofluorescence; type: cell-based; conditions: 1 μM MMC and 10 μM inhibitors for 6h; FIG. 8E, F
# Protocol: as §1
# Cells were grown on coverslip for 24 hours before treated with MMC. […]
# [1] = tested on: HSPCs from WT or Fancd2−/− mice; assay: Cytotoxicity of RAD51 inhibitors in HSPCs; type: cell-based, mouse; conditions: B02 (10 μM) or RI-1 (1004) in vitro for five days; FIG. 8G
# Protocol: as §1
# [2] = tested on: Lin− cells from WT and Fancd2−/− mice; assay: Lin− cell growth under mTGFβ; type: cell-based, mouse; conditions: mTGFβ 1 ng/mL; FIG. 2B
# Protocol: For mouse hematopoietic stem/progenitor cell culture, Lin^− cells were cultured in vitro in StemSpan SFEM media with 10 ng/mL SCF, 20 ng/mL IGF-2, 20 ng/mL TPO, 10 ng/mL heparin, and 10 ng/mL a-FGF. Half media was changed every three days. For human cord blood cells, CD34+ cells were isolated using CD34 microbead kit (Miltenyi Biotec). Cells were cultured in StemSpan SFEM media with 100 ng/mL hSCF, 100 ng/mL FLT3 ligand, 10 ng/mL TPO, 10 ng/mL IL-6. Cells were treated with 10 ug/mL 1D11 or 10 μM SD208.
# To perform flow cytometry analysis, Lin^− cells were collected at day 2 and 5 post transduction and suspended in staining medium (PBS with 2% heat-inactivated calf serum), and incubated with PE-conjugated c-Kit and APC-conjugated Sca-1 antibodies were added to the cells for 30 min at 4° C. in the dark. Stem cell population (GFP^+Lin^−c-Kit^+Sca-1^+) was analyzed by FACS. All these antibodies were purchased from eBioscience.
# TGFβ pathway = assay: Immunoblot of p-Smad2 in stromal cells; type: cell-based, mouse; conditions: FIG. 1A bottom panel
# Fancd2−/− stromal cells = assay: Survival of stromal cells in the presence of MMC; type: cell-based, mouse; conditions: FIG. 1A
# Protocol: (§2) For survival assays, cells were seeded at a density of 1×10^3 cells per well in 96-well plates. After 72 hours of culture in indicated concentrations of MMC or post exposure of acetaldehyde, viability was assessed using CellTiterGlo reagent (Promega). In order to assess clonogenicity, cells were seeded at a low density (500-1000 cells per well) in 6-well plates and allowed to form colonies. The cells were then fixed in methanol/20% acetic acid and stained with 1% crystal violet. Colony formation was assessed by solubilizing crystal violet stain with methanol and quantifying UV absorbance for each condition.
# as §2, with “3-6 days” for “72 hours”, “Colonies were counted after” for “Colony formation was assessed by solubilizing”, “staining.” for “stain with methanol and quantifying UV absorbance for each condition.”
SMILES,HR efficiency (DR-GFP recombination) (U2OS cells),RAD51 foci formation (GM6914 (FA-A) cells),cytotoxicity in HSPCs (survival) [1],suppressive effect of exogenous mTGFβ on Lin− cell growth [2],activation of the TGFβ pathway (p-Smad2) in murine stromal cells (TGFβ pathway),MMC sensitivity / resistance (survival) of Fancd2−/− stromal cells (Fancd2−/− stromal cells)
O=c1c2ccccc2nc(/C=C/c2cccnc2)n1Cc1ccccc1 [B02],significantly decrease HR efficiency,efficiently block RAD51 foci formation,do not show cytotoxicity,,,
O=C1C(Cl)=C(N2CCOCC2)C(=O)N1c1ccc(Cl)c(Cl)c1 [RI-1],significantly decrease HR efficiency,efficiently block RAD51 foci formation,do not show cytotoxicity,,,
Fc1ccc(Cl)cc1-c1nc(Nc2ccncc2)c2nccnc2n1 [SD208],,,,rescued the inhibitory effect,inhibition of TGFβ signaling,restores MMC resistance
